Measured values from BigSolDB 2.1.

CNC(=O)c1cc(Oc2ccc(N)cc2)ccn1
solubility (mole fraction)
Details	in THF	in acetonitrile	in ethanol	in ethyl acetate	in methanol	in n-butanol	in n-propanol
278.15 K	0.0898	0.0273	0.00539	0.0528	0.00809	0.00322	0.00451
283.15 K	0.0978	0.0317	0.00707	0.0637	0.0117	0.0044	0.00593
288.15 K	0.108	0.0394	0.00914	0.0773	0.0158	0.00563	0.00778
293.15 K	0.118	0.0491	0.0136	0.0919	0.0203	0.00781	0.0111
298.15 K	0.129	0.0595	0.0179	0.11	0.0276	0.00986	0.0135
303.15 K	0.143	0.0737	0.0249	0.129	0.0369	0.0132	0.0181
308.15 K	0.158	0.0897	0.0331	0.151	0.0488	0.0171	0.0237
313.15 K	0.173	0.109	0.044	0.179	0.0634	0.0222	0.0308
318.15 K	0.192	0.133	0.0587	0.207	0.082	0.0287	0.0396
323.15 K	0.211	0.161	0.0764	0.238	0.105	0.0366	0.0503
328.15 K	0.233	0.195	0.0999	0.28	0.134	0.0466	0.0638
